Measurements reported in US20250049809A1, “INHIBITORS OF MUTANT IDH1 AND IDH2” (Board of Regents, The University of Texas System, priority 2023, published 2025).

Columns and labels:
[1] = target: mIDH1R132H (Homo sapiens (Human), UniProt O75874, R132H); experiment: mIDH1 R132H enzymatic activity assay (NADPH fluorescence); format: biochemical; settings: enzyme assay; read-out: IDH1R132H IC50
Description: The enzymatic activity of mIDH1R132H was assessed by measuring the fluorescence of the NADPH. The assay was performed in 384 well, white ProxiPlates (PerkinElmer, 6008280) in assay buffer containing 50 mM Hepes (Life Technologies, 15630080), 50 mM KCl (Teknova, P0327), 10 mM MgCl2 (Sigma-Aldrich, M1028), 1 mM DTT (Sigma-Aldrich, 43815), 0.02% BSA (Sigma-Aldrich, A3059) at pH 7.5. The final reaction volume was 10 μL. Stock solutions of the test compounds were prepared in 100% DMSO (Sigma, D2650) and serially diluted 1:3 using 100% DMSO. 50 nL of compound were then transferred to the assay plate using the Beckman Coulter ECHO 650 Acoustic Liquid Handler for a final DMSO concentration of 0.5%. […] a mIDH1R132H and NADPH (Santa Cruz, SC202725C) mixture were added to the assay plate for a final concentration of 10 nM and 20 μM, respectively. 5 μL of NADPH alone were added to negative control wells. 5 μL of alphaketoglutarate (Sigma-Aldrich, K1128) were added to the assay plate for a final concentration of 200 μM. Fluorescence of NADPH (excitation: 350 nm, emission 450 nm) was immediately measured kinetically for approximately 60 minutes using the BioTek Synergy Neo plate reader.

[2] = target: U87 IDH1R132H (Homo sapiens (Human), UniProt O75874, R132H); experiment: U87 IDH1 R132H 2-HG cellular assay; format: cell-based; settings: extracellular 2HG, 24 h treatment, IDH1 mutant-U-87 isogenic cell line
Description: The IDH1 mutant-U-87 isogenic cell line (ATCC HTB-14IG) used to test cellular inhibition is a glioma IDH1R132H mutant isogenic line derived from the parental U-87MG cell line. These cells are maintained in EMEM (ATCC 30-2003) culture media with 10% FBS and 10 U/mL Penicillin-Streptomycin. Twelve thousand cells are plated in polystyrene 384 well cell culture plates (Greiner Bio-One 781091) (12,000 cells/well) approximately 18 hours before compound treatment. Immediately before treatment, the cells are washed twice with PBS, followed by culture media replenishing. Cells are then treated with different concentrations of test compounds (5 μM to 0.3 pM) for 24 h. Extracellular 2HG levels are measured from cell culture media. For analyte extraction, 30 μL of culture media is transferred to 120 uL 100% acetonitrile in a deep 384 well plate and mixed well, followed by 5 min centrifugation at 3700 rpm at room temperature. 100 μL of supernatant is transferred to a flat bottom 384 well plate. Samples are run on the Agilent RapidFire-Mass Spectrometry instrument to detect 2HG levels. The samples from each well were aspirated for 600 ms and loaded onto a HILIC solid-phase extraction cartridge (Agilent) followed by a wash step for 3000 ms with 90% acetonitrile containing 5 mM ammonium acetate. Analytes were then eluted off the cartridge into the Agilent 6460 Triple Quad mass spectrometer with a 4500 ms elution step using 30% acetonitrile containing 5 mM ammonium acetate. The HILIC cartridge was then re-equilibrated by 90% acetonitrile containing 5 mM ammonium acetate for 500 ms. The 2HG was detected by an Agilent 6460 Triple Quad mass spectrometer in negative ion mode. Multiple reaction monitoring was used to quantify 2HG using the precursor ion and product ion at m/z 147.03 and 128.9, respectively. The percent activity of each sample is calculated by using DMSO and control compound treated references, and IC50 values are obtained using the GeneData Screener data analysis program.

[3] = target: mIDH2R140Q (Homo sapiens (Human), UniProt P48735, R140Q); experiment: mIDH2 R140Q enzymatic activity assay (NADPH fluorescence); format: biochemical; settings: enzyme assay, 1 hour preincubation; read-out: IDH2R140Q IC50
Description: The enzymatic activity of mIDH2R140Q was assessed by measuring the fluorescence of the NADPH. The assay was performed in 384 well, white ProxiPlates (PerkinElmer, 6008280) in assay buffer containing 50 mM Hepes (Life Technologies, 15630080), 50 mM KCl (Teknova, P0327), 10 mM MgCl2 (Sigma-Aldrich, M1028), 1 mM DTT (Sigma-Aldrich, 43815), 0.02% BSA (Sigma-Aldrich, A3059) at pH 7.5. The final reaction volume was 10 μL. Stock solutions of the test compounds were prepared in 100% DMSO (Sigma, D2650) and serially diluted 1:3 using 100% DMSO. 50 nL of compound were then transferred to the assay plate using the Beckman Coulter ECHO 650 Acoustic Liquid Handler for a final DMSO concentration of 0.5%. 5 μL of a mIDH2R140Q and NADPH (Santa Cruz, SC202725C) mixture were added to the assay plate for a final concentration of 3 nM and 10 μM, respectively. 5 μL of NADPH alone were added to negative control wells followed by a 1 hour preincubation at room temperature. 5 μL of alphaketoglutarate (Sigma-Aldrich, K1128) were added to the assay plate for a final concentration of 300 μM. Fluorescence of NADPH (excitation: 350 nm, emission 450 nm) was immediately measured kinetically for approximately 150 minutes using the BioTek Synergy Neo plate reader.

Chain of U87 IDH1R132H (O75874 whole entry R132H): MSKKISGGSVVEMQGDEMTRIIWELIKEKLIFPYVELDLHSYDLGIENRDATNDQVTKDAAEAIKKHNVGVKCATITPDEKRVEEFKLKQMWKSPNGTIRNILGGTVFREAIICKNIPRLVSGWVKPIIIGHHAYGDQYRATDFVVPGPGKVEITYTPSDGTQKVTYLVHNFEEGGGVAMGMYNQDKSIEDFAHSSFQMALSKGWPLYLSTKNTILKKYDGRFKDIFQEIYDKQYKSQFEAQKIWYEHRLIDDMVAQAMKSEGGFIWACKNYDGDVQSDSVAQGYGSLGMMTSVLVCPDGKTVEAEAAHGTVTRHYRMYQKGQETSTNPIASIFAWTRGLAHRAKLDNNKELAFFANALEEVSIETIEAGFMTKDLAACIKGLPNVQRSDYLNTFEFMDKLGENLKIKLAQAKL
Chain of mIDH1R132H (O75874 whole entry R132H): as above
Chain of mIDH2R140Q (P48735 40-452 R140Q): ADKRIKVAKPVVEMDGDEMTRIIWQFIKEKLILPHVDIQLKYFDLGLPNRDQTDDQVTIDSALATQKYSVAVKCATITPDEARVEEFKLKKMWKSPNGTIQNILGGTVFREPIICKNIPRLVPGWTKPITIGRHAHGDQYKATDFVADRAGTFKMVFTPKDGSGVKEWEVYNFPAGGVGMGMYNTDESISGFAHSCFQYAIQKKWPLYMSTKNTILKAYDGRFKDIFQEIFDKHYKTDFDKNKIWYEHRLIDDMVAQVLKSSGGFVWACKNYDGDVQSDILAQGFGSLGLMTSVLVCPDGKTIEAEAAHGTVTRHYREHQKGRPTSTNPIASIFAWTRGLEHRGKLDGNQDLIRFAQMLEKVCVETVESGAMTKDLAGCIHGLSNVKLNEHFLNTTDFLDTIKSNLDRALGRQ

| Compound | IC50 [1] | IC50 [2] | IC50 [3] |
| --- | --- | --- | --- |
| C=CC(=O)N1CCN(C2CCCCCCCN3C(=O)OCc4cnc(nc43)N[C@@H](C)c3ccc2cc3)CC1 (stereo partly drawn) [Example 4, (3S)-5-(4-acryloylpiperazin-1-yl)-3-methyl-1^1,1^4-dihydro-1^2H-2-aza-1(7,1)-pyrimido[4,5-d][1,3]oxazina-4(1,4)-benzenacyclododecaphan-1^2-one] | 4 nM | 0.2 nM | 1680 nM |
| C=CC(=O)N1CCN(C2CCCC/C=C/CN3C(=O)OCc4cnc(nc43)N[C@@H](C)c3ccc2cc3)CC1 (stereo partly drawn) [Example 3, (3S,E)-5-(4-acryloylpiperazin-1-yl)-3-methyl-1^1,1^4-dihydro-1^2H-2-aza-1(7,1)-pyrimido[4,5-d][1,3]oxazina-4(1,4)-benzenacyclododecaphan-10-en-1^2-one] | 3.3 nM | 0.14 nM | 1440 nM |
